According to the OligoGym collection:
HELM strings list units from the 5' end as sugar, base in round brackets, then linkage (d deoxyribose, r ribose, m 2'-O-methyl, p phosphodiester). Strings are as the collection lists them, not checked against the first reports. ss, as = sense and antisense strand; [fl2r] = 2'-fluoro

Conditions: siRNA
Note: test system not given here.

Q: Which target mRNA knockdown does the source give for “RNA1{m(U)p.r(G)p.m(A)p.r(A)p.m(C)p.r(G)p.m(U)p.r(C)p.m(A)p.r(C)p.m(C)p.r(G)p.m(A)p.r(G)p.m(G)p.r(A)p.m(G)p.r(A)p.m(A)p.r(T)p.r(T)}|RNA2{r(U)p.r(U)p.r(C)p.r(U)p.r(C)p.r(C)p.r(U)p.r(C)p.r(G)p.r(G)p.r(U)p.r(G)p.m(A)p.r(C)p.r(G)p.r(U)p.r(U)p.r(C)p.m(A)p.r(T)p.r(T)}$$$RNA1{StrandType:ss}|RNA2{StrandType:as}$” here?
A: 65%

Q: Which target mRNA knockdown does the source give for “RNA1{m(U)p.r(G)p.r(A)p.r(A)p.r(C)p.r(G)p.r(U)p.m(C)p.r(A)p.r(C)p.r(C)p.r(G)p.r(A)p.r(G)p.r(G)p.r(A)p.r(G)p.r(A)p.r(A)p.r(T)p.r(T)}|RNA2{r(U)p.r(U)p.r(C)p.r(U)p.r(C)p.r(C)p.r(U)p.r(C)p.r(G)p.r(G)p.m(U)p.r(G)p.r(A)p.r(C)p.r(G)p.r(U)p.r(U)p.m(C)p.r(A)p.r(T)p.r(T)}$$$RNA1{StrandType:ss}|RNA2{StrandType:as}$” here?
A: 82%

Q: For “RNA1{m(U)p.r(U)p.m(A)p.r(A)p.m(A)p.r(G)p.m(G)p.r(G)p.m(C)p.r(G)p.m(A)p.r(G)p.m(A)p.r(A)p.m(G)p.r(A)p.m(C)p.r(C)p.m(G)p.r(T)p.r(T)}|RNA2{r(C)p.r(G)p.r(G)p.r(U)p.r(C)p.r(U)p.r(U)p.r(C)p.r(U)p.r(C)p.r(G)p.r(C)p.r(C)p.r(C)p.r(U)p.r(U)p.r(U)p.r(A)p.r(A)p.r(T)p.r(T)}$$$RNA1{StrandType:ss}|RNA2{StrandType:as}$”, which target mRNA knockdown is on record?
A: 67%

Q: Which target mRNA knockdown does the source give for “RNA1{m(U)p.r(U)p.m(A)p.r(A)p.m(G)p.r(G)p.m(A)p.r(G)p.m(A)p.r(A)p.m(G)p.r(C)p.m(U)p.r(G)p.m(A)p.r(C)p.m(G)p.r(G)p.m(C)p.r(T)p.r(T)}|RNA2{m(G)p.r(C)p.r(C)p.m(G)p.r(U)p.r(C)p.r(A)p.m(G)p.r(C)p.r(U)p.r(U)p.r(C)p.r(U)p.r(C)p.r(C)p.r(U)p.r(U)p.r(A)p.r(A)p.r(T)p.r(T)}$$$RNA1{StrandType:ss}|RNA2{StrandType:as}$” here?
A: 45%

Q: Which target mRNA knockdown does the source give for “RNA1{m(U)p.r(U)p.m(A)p.r(A)p.m(G)p.r(G)p.m(A)p.r(G)p.m(A)p.r(A)p.m(G)p.r(C)p.m(U)p.r(G)p.m(A)p.r(C)p.m(G)p.r(G)p.m(C)p.r(T)p.r(T)}|RNA2{r(G)p.r(C)p.r(C)p.r(G)p.r(U)p.r(C)p.r(A)p.r(G)p.r(C)p.r(U)p.r(U)p.r(C)p.r(U)p.r(C)p.r(C)p.r(U)p.r(U)p.r(A)p.r(A)p.r(T)p.r(T)}$$$RNA1{StrandType:ss}|RNA2{StrandType:as}$” here?
A: 24%

Q: Which target mRNA knockdown does the source give for “RNA1{m(U)p.r(U)p.m(A)p.r(C)p.m(A)p.r(A)p.m(A)p.r(G)p.m(G)p.r(A)p.m(U)p.r(C)p.m(U)p.r(C)p.m(C)p.r(U)p.m(C)p.r(C)p.m(C)p.r(T)p.r(T)}|RNA2{r(G)p.r(G)p.r(G)p.m(A)p.r(G)p.r(G)p.m(A)p.r(G)p.m(A)p.r(U)p.r(C)p.r(C)p.r(U)p.r(U)p.r(U)p.r(G)p.r(U)p.m(A)p.m(A)p.r(T)p.r(T)}$$$RNA1{StrandType:ss}|RNA2{StrandType:as}$” here?
A: 51%

Q: With “RNA1{m(U)p.r(U)p.m(A)p.r(C)p.m(A)p.r(A)p.m(A)p.r(G)p.m(G)p.r(A)p.m(U)p.r(C)p.m(U)p.r(C)p.m(C)p.r(U)p.m(C)p.r(C)p.m(C)p.r(T)p.r(T)}|RNA2{r(G)p.r(G)p.r(G)p.r(A)p.r(G)p.r(G)p.r(A)p.r(G)p.r(A)p.r(U)p.m(C)p.m(C)p.r(U)p.r(U)p.r(U)p.r(G)p.r(U)p.r(A)p.r(A)p.r(T)p.r(T)}$$$RNA1{StrandType:ss}|RNA2{StrandType:as}$” as the substance, how does the target mRNA knockdown read?
A: 57%

Q: For “RNA1{m(U)p.r(U)p.m(G)p.r(G)p.m(G)p.r(G)p.m(A)p.r(A)p.m(G)p.r(C)p.m(G)p.r(G)p.m(C)p.r(C)p.m(G)p.r(G)p.m(C)p.r(G)p.m(G)p.r(T)p.r(T)}|RNA2{r(C)p.r(C)p.r(G)p.r(C)p.r(C)p.r(G)p.r(G)p.r(C)p.r(C)p.r(G)p.r(C)p.r(U)p.r(U)p.r(C)p.r(C)p.r(C)p.r(C)p.m(A)p.m(A)p.r(T)p.r(T)}$$$RNA1{StrandType:ss}|RNA2{StrandType:as}$”, which target mRNA knockdown is on record?
A: 36%

Q: Which target mRNA knockdown does the source give for “RNA1{m(U)p.r(U)p.m(U)p.r(G)p.m(A)p.r(U)p.m(C)p.r(A)p.m(G)p.r(C)p.m(G)p.r(G)p.m(A)p.r(G)p.m(A)p.r(C)p.m(U)p.r(C)p.m(G)p.r(T)p.r(T)}|RNA2{r(C)p.r(G)p.r(A)p.r(G)p.r(U)p.r(C)p.r(U)p.r(C)p.r(C)p.m(G)p.r(C)p.r(U)p.r(G)p.r(A)p.m(U)p.r(C)p.r(A)p.r(A)p.r(A)p.r(T)p.r(T)}$$$RNA1{StrandType:ss}|RNA2{StrandType:as}$” here?
A: 49%

Q: With “RNA1{r(A)p.[fl2r](A)p.r(G)p.r(G)p.r(C)p.[fl2r](C)p.r(A)p.r(A)p.r(C)p.r(C)p.r(G)p.r(A)p.[fl2r](U)p.r(A)p.r(C)p.r(U)p.r(U)p.r(C)p.r(U)p.r(T)p.r(T)}|RNA2{r(A)p.r(G)p.r(A)p.r(A)p.r(G)p.[fl2r](U)p.r(A)p.r(U)p.r(C)p.r(G)p.r(G)p.r(U)p.[fl2r](U)p.r(G)p.r(G)p.r(C)p.r(C)p.r(U)p.r(U)p.r(T)p.r(T)}$$$RNA1{StrandType:ss}|RNA2{StrandType:as}$” as the substance, how does the target mRNA knockdown read?
A: 68%

Q: Which target mRNA knockdown does the source give for “RNA1{r(A)p.[fl2r](C)p.r(A)p.[fl2r](U)p.r(A)p.[fl2r](G)p.r(A)p.r(G)p.r(G)p.r(A)p.r(A)p.r(G)p.r(A)p.r(C)p.r(G)p.r(C)p.r(G)p.r(G)p.r(A)p.r(T)p.r(T)}|RNA2{r(U)p.r(C)p.r(C)p.r(G)p.r(C)p.r(G)p.r(U)p.r(C)p.r(U)p.r(U)p.r(C)p.r(C)p.r(U)p.r(C)p.[fl2r](U)p.r(A)p.[fl2r](U)p.r(G)p.r(U)p.r(T)p.r(T)}$$$RNA1{StrandType:ss}|RNA2{StrandType:as}$” here?
A: 86%

Q: With “RNA1{r(A)p.m(A)p.r(G)p.m(G)p.r(A)p.m(G)p.r(A)p.m(U)p.r(C)p.m(A)p.r(A)p.m(C)p.r(A)p.m(U)p.r(U)p.m(U)p.r(U)p.m(C)p.r(A)p.r(T)p.r(T)}|RNA2{m(U)p.r(G)p.m(A)p.r(A)p.m(A)p.r(A)p.m(U)p.r(G)p.m(U)p.r(U)p.m(G)p.r(A)p.m(U)p.r(C)p.m(U)p.r(C)p.m(C)p.r(U)p.m(U)p.r(T)p.r(T)}$$$RNA1{StrandType:ss}|RNA2{StrandType:as}$” as the substance, how does the target mRNA knockdown read?
A: 83%

Q: With “RNA1{r(A)p.m(A)p.r(G)p.m(G)p.r(A)p.m(G)p.r(A)p.m(U)p.r(C)p.m(A)p.r(A)p.m(C)p.r(A)p.m(U)p.r(U)p.m(U)p.r(U)p.m(C)p.r(A)p.r(T)p.r(T)}|RNA2{r(U)p.m(G)p.r(A)p.m(A)p.r(A)p.m(A)p.r(U)p.m(G)p.r(U)p.m(U)p.r(G)p.m(A)p.r(U)p.m(C)p.r(U)p.m(C)p.r(C)p.m(U)p.r(U)p.r(T)p.r(T)}$$$RNA1{StrandType:ss}|RNA2{StrandType:as}$” as the substance, how does the target mRNA knockdown read?
A: 61%

Q: For “RNA1{r(A)p.m(C)p.m(A)p.r(G)p.r(A)p.r(A)p.r(A)p.r(G)p.m(A)p.r(G)p.r(U)p.r(U)p.r(C)p.r(G)p.r(A)p.r(G)p.r(G)p.r(A)p.r(G)p.r(T)p.r(T)}|RNA2{r(C)p.r(U)p.r(C)p.r(C)p.r(U)p.r(C)p.r(G)p.r(A)p.r(A)p.r(C)p.r(U)p.r(C)p.r(U)p.r(U)p.r(U)p.r(C)p.m(U)p.r(G)p.r(U)p.r(T)p.r(T)}$$$RNA1{StrandType:ss}|RNA2{StrandType:as}$”, which target mRNA knockdown is on record?
A: 61%

Q: For “RNA1{r(A)p.m(C)p.m(C)p.m(U)p.m(U)p.m(U)p.m(C)p.m(C)p.r(A)p.m(C)p.m(U)p.m(U)p.m(C)p.m(U)p.r(A)p.r(A)p.r(G)p.m(C)p.m(C)p.r(T)p.r(T)}|RNA2{r(G)p.r(G)p.r(C)p.r(U)p.r(U)p.r(A)p.r(G)p.r(A)p.r(A)p.r(G)p.r(U)p.r(G)p.r(G)p.r(A)p.r(A)p.r(A)p.r(G)p.r(G)p.r(U)p.r(T)p.r(T)}$$$RNA1{StrandType:ss}|RNA2{StrandType:as}$”, which target mRNA knockdown is on record?
A: 75%

Q: Which target mRNA knockdown does the source give for “RNA1{r(A)p.m(C)p.r(A)p.r(G)p.r(A)p.r(A)p.r(A)p.r(G)p.r(A)p.r(G)p.r(U)p.r(U)p.r(C)p.r(G)p.r(A)p.r(G)p.r(G)p.r(A)p.r(G)p.r(T)p.r(T)}|RNA2{r(C)p.r(U)p.r(C)p.r(C)p.r(U)p.r(C)p.r(G)p.r(A)p.r(A)p.r(C)p.r(U)p.r(C)p.r(U)p.r(U)p.r(U)p.r(C)p.m(U)p.r(G)p.r(U)p.r(T)p.r(T)}$$$RNA1{StrandType:ss}|RNA2{StrandType:as}$” here?
A: 64%

Q: Which target mRNA knockdown does the source give for “RNA1{r(A)p.m(G)p.r(A)p.m(U)p.r(G)p.m(U)p.m(U)p.m(C)p.m(U)p.m(C)p.r(G)p.m(U)p.r(A)p.r(A)p.m(G)p.r(G)p.r(A)p.m(C)p.r(G)p.r(T)p.r(T)}|RNA2{r(C)p.r(G)p.r(U)p.r(C)p.r(C)p.r(U)p.r(U)p.r(A)p.r(C)p.r(G)p.r(A)p.r(G)p.r(A)p.r(A)p.r(C)p.r(A)p.r(U)p.r(C)p.r(U)p.r(T)p.r(T)}$$$RNA1{StrandType:ss}|RNA2{StrandType:as}$” here?
A: 53%

Q: With “RNA1{r(A)p.m(U)p.m(C)p.r(G)p.r(A)p.m(C)p.m(C)p.m(U)p.r(G)p.r(A)p.r(A)p.r(G)p.r(G)p.r(A)p.r(G)p.m(U)p.r(A)p.m(C)p.r(G)p.r(T)p.r(T)}|RNA2{m(C)p.r(G)p.m(U)p.r(A)p.m(C)p.m(U)p.m(C)p.m(C)p.m(U)p.m(U)p.m(C)p.r(A)p.r(G)p.r(G)p.m(U)p.m(C)p.r(G)p.r(A)p.m(U)p.r(T)p.r(T)}$$$RNA1{StrandType:ss}|RNA2{StrandType:as}$” as the substance, how does the target mRNA knockdown read?
A: 19%

Q: For “RNA1{r(A)p.m(U)p.r(A)p.r(C)p.r(U)p.m(U)p.m(G)p.r(G)p.r(C)p.r(G)p.r(G)p.r(G)p.m(C)p.r(U)p.r(C)p.r(U)p.r(U)p.r(U)p.r(C)p.r(T)p.r(T)}|RNA2{r(G)p.r(A)p.r(A)p.r(A)p.r(G)p.r(A)p.r(G)p.r(C)p.r(C)p.r(C)p.r(G)p.r(C)p.m(C)p.r(A)p.r(A)p.r(G)p.m(U)p.r(A)p.r(U)p.r(T)p.r(T)}$$$RNA1{StrandType:ss}|RNA2{StrandType:as}$”, which target mRNA knockdown is on record?
A: 70%

Q: For “RNA1{r(A)p.m(U)p.r(A)p.r(C)p.r(U)p.m(U)p.r(G)p.r(G)p.r(C)p.m(G)p.r(G)p.r(G)p.r(C)p.r(U)p.r(C)p.r(U)p.r(U)p.r(U)p.r(C)p.r(T)p.r(T)}|RNA2{r(G)p.r(A)p.r(A)p.r(A)p.r(G)p.r(A)p.r(G)p.r(C)p.r(C)p.r(C)p.r(G)p.r(C)p.m(C)p.r(A)p.r(A)p.r(G)p.m(U)p.r(A)p.r(U)p.r(T)p.r(T)}$$$RNA1{StrandType:ss}|RNA2{StrandType:as}$”, which target mRNA knockdown is on record?
A: 42%

Q: With “RNA1{r(A)p.m(U)p.r(A)p.r(C)p.r(U)p.r(U)p.r(G)p.r(G)p.r(C)p.r(G)p.r(G)p.r(G)p.r(C)p.r(U)p.r(C)p.r(U)p.r(U)p.r(U)p.r(C)p.r(T)p.r(T)}|RNA2{r(G)p.r(A)p.r(A)p.r(A)p.r(G)p.r(A)p.r(G)p.r(C)p.r(C)p.r(C)p.r(G)p.r(C)p.r(C)p.r(A)p.r(A)p.r(G)p.r(U)p.r(A)p.r(U)p.r(T)p.r(T)}$$$RNA1{StrandType:ss}|RNA2{StrandType:as}$” as the substance, how does the target mRNA knockdown read?
A: 48%
